“Also recorded” adds a separate entry of the source. Where two headings read alike, the source gives them in different places.
Legend:
GABAA R subtypes = settings: relative to DMCM; cited from earlier work
Cells exposed to TPrP [1] = test: cells; settings: read-out: Viability EC50
PARP-1 = PARP-1 (Homo sapiens, UniProt P09874); test: PARP1 chemiluminescent assay kit (BPS Bioscience); format: biochemical; settings: FIG. 15
Method: ABT-888 is a known PARP1 inhibitor serving as pharmacological control for the assay. […] The assay was performed using the BPS Bioscience PARP1 chemiluminescent assay kit according to the manufacturer's instructions.

[2] = system: Human stem cell-derived neurons; test: Cellular PD model, α-synuclein PFFs-seeded human neurons; format: cell-based; settings: 2 μM, PFFs 50 μg/ml, 17 days
Method: Human stem cell-derived neurons (30 days post-differentiation) were seeded with 50 μg/ml preformed α-synuclein fibrils (PFFs), treated with DMCM-10049 at 2 μM or vehicle, and fixed 17 days later for analysis. Control cells were not PFFs-seeded. A: Dendritic spines were labeled with the marker F-actin using Phalloidin-iFluor 488 (Abcam). B: pα-syn* (red, antibody GTX50222, GeneTex)+DAPI (blue) staining. Quantification was done using ImageJ (NIH), statistical analysis with one way ANOVA (Prism7). Mean values and SDs of 8 images (A) or 6 images (B) per each condition are shown. ****P<0.0001; ***P<0.001; ns=non significant.

[3] = system: PK1 cells treated with TPrP; format: cell-based
[4] = system: PK1 neuroblastoma cells treated with TPrP; test: cells; format: cell-based; settings: Neuroblastoma cell
NAMPT = target: T1, NAMPT (Homo sapiens, UniProt P43490); test: Colorimetric NAMPT activity assay (Abcam, ab221819); format: biochemical; settings: tested at 5 μM or 20 μM
T1 construct: purchased Abcam ab221819
T1 sequence (P43490 whole entry): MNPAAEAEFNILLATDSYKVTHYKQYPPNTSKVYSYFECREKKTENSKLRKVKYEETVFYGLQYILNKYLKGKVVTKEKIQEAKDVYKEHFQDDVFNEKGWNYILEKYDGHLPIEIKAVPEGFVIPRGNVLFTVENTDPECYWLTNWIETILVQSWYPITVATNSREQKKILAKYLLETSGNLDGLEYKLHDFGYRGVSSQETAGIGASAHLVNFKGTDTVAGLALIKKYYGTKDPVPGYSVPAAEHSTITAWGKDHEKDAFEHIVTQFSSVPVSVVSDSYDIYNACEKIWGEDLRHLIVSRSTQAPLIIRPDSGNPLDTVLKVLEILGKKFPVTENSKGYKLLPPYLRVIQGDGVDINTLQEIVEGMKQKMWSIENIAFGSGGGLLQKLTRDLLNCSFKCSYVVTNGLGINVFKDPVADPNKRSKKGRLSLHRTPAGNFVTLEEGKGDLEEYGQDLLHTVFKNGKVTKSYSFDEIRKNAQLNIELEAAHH
Method: Compounds were tested in a colorimetric NAMPT activity assay (Abcam, ab221819). Each data point represents a duplicate sample. […] Compounds were tested at 5 μM (A) or 20 μM (B).

[5] = system: Primary mouse cortical neurons; format: cell-based
[6] = system: PK1 neuroblastoma cells treated with TPrP; test: cells; format: cell-based; settings: for EC50: Neuroblastoma cell
VEGFR-1 [7] = target: T2, VEGFR-1 (Homo sapiens, UniProt P17948); test: VEGFR inhibition of vatalanib analogs; format: biochemical; settings: relative to vatalanib
T2 sequence (P17948 27-1338, species assumed): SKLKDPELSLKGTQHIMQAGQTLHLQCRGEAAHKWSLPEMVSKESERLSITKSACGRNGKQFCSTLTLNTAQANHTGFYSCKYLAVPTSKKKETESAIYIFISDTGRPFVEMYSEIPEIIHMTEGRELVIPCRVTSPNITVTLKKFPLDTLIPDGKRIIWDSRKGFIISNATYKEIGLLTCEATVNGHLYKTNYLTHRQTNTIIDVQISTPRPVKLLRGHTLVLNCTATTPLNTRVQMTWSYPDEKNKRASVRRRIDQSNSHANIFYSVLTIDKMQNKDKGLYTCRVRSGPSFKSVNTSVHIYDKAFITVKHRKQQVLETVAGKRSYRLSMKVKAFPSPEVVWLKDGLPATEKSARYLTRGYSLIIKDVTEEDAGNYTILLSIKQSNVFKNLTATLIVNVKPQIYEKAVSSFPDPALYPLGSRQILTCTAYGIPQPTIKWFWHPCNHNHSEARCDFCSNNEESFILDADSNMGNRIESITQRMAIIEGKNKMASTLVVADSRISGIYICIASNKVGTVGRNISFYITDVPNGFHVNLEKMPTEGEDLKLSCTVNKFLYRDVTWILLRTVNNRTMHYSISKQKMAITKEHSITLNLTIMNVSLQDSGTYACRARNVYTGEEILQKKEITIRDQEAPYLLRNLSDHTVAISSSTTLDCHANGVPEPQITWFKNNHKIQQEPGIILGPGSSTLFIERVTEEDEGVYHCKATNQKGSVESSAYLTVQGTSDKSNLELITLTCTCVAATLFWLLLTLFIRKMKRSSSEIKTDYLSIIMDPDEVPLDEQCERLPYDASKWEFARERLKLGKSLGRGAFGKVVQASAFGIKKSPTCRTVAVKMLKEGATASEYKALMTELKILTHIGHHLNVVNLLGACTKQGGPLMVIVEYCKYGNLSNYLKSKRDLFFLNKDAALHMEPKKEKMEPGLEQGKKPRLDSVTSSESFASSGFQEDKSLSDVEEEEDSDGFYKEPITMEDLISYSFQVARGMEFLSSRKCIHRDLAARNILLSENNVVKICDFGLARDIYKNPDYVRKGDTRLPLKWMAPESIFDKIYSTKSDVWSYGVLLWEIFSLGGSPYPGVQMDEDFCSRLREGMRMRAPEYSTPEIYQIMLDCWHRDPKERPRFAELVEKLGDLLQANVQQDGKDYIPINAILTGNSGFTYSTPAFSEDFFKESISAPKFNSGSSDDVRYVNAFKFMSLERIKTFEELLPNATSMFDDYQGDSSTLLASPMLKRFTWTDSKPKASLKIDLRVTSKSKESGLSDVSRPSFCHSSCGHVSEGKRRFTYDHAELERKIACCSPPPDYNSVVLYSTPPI

VEGFR-1 [8] = target: T2, VEGFR-1; settings: subtype not given; cited from earlier work
[9] = system: Murine stem-cell derived neurons; test: Cellular PD/synucleinopathy model, PFFs-seeded murine neurons, neurite length; format: cell-based; settings: FIG. 14
Method: Murine stem-cell derived neurons (8 days post-differentiation) were seeded with PFFs (A, B: 4 μg/ml; C, D: 3 μg/ml) and treated with the test compounds at the dose indicated, or with the vehicle DMSO, during the last 2 days of differentiation. Control cells were not PFFs-seeded. Cells were photographed by phase contrast microscopy. Neurite length was quantified using the NeuronJ plugin of ImageJ (NIH), statistical analysis was done in pairs by comparing compound-treated cells with the DMSO control (student's t-test, Prism8). Mean values and SEMs of 4 fields per each condition are shown. Each field contained approximately 50 to 100 neurons. Images shown correspond to a representative area of one field. ****P<0.0001; ***P<0.001; **P<0.01; *P<0.05; ns=not significant.

Cells exposed to TPrP [10] = settings: read-out: Viability EC50
[11] = in vivo; cited from earlier work
[12] = system: PK1 cells exposed to TPrP; format: cell-based
[13] = read-out: EC50 (TPrP toxicity rescue / neuroprotection)

Sequence of PARP-1 (P09874 whole entry): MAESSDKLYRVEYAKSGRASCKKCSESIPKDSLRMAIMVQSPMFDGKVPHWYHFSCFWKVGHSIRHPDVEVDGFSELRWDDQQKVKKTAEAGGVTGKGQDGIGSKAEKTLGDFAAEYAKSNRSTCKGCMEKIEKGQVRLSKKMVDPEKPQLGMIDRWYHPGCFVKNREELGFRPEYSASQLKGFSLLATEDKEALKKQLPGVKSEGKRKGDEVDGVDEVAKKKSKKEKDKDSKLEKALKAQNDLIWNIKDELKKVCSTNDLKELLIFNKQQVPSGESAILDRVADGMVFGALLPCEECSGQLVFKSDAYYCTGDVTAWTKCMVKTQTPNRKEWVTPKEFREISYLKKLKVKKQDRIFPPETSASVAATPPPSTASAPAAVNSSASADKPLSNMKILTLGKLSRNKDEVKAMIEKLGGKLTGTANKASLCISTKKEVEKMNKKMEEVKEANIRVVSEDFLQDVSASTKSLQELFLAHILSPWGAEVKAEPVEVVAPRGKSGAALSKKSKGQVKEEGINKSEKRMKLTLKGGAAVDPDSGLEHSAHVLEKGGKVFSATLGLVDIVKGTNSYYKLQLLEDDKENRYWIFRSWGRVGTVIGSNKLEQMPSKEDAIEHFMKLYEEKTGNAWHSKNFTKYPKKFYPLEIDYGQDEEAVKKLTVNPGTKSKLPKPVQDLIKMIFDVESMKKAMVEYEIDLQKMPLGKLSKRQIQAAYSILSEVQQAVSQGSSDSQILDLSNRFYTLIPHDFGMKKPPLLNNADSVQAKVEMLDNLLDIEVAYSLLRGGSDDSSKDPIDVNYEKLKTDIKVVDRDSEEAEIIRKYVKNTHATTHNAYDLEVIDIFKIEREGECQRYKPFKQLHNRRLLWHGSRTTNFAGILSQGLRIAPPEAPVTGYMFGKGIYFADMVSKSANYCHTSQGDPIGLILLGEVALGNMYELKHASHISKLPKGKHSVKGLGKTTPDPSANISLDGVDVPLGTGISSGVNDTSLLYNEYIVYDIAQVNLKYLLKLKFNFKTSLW

For `CCc1c(C(=O)NN)ncc2[nH]c3cc(OC)c(OC)cc3c12` [DMCM-10049], the “reduced potency for most GABAA R subtypes” value (GABAA R subtypes) is listed as “over 100 ×”, the EC50 (Cells exposed to TPrP [1]) is listed as roughly 500 nM and the PARP-1 inhibition (PARP-1) is listed as “absence of PARP-1 inhibition”. For the same compound, the “dendritic spines (F-actin)” value [2] was “preserves dendritic spines” and the “pα-syn* levels” value [2] was “reduces pα-syn* levels”.
With `CCc1c(C(=O)OC)ncc2[nH]c3cc(OC)c(OC)cc3c12` [SR1-75869, DMCM, reference compound] the “excessive protein ADP ribosylation induced by TPrP” value [3] was “mitigates excessive protein ADP ribosylation”, the EC50 ([4]; read-out: NAD EC50) was 749 nM and the “Activation of NAMPT” value (NAMPT) was “not”. The “neuritic breakdown and neuronal vacuolation induced by TPrP” value [5] was “suppressed”, the “rescue of TPrP-induced toxicity (cell viability)” value [5] was “rescues TPrP-induced toxicity” and the EC50 ([6]; read-out: Viability EC50) was 120 nM.
With `CC(=O)c1cccc(Nc2nnc(Cc3ccncc3)c3ccccc23)c1` [SR1-134005] the “fold less potent than vatalanib at VEGFR-1” value (VEGFR-1 [7]) was 13 fold, the EC50 ([4]; read-out: NAD EC50) was 105 nM and the “Activation of NAMPT” value (NAMPT) was “Activation of NAMPT”. For the same compound, the EC50 (Cells exposed to TPrP [1]) was 20 nM, the PARP-1 inhibition (PARP-1) was “absence of PARP-1 inhibition” and the “fold more potent than vatalanib as a neuroprotective agent” value [6] was “more than 6 fold”. It also gave an EC50 [6, 13] of 6.3 nM and an EC50 ([6]; read-out: Viability EC50) of 6.3 nM.
For `COc1cc(Nc2nnc(Cc3ccncc3)c3ccccc23)cc(OC)c1` [SR1-151915], the IC50 (VEGFR-1 [8]) is given as greater than 1000 nM, the EC50 ([4]; read-out: NAD EC50) is given as 280 nM and the EC50 [6, 13] is given as 71.4 nM. For the same compound, the EC50 ([6]; read-out: Viability EC50) was 71.4 nM.
With `O=C(NCCCn1ccnc1)c1cnn2c(C(F)(F)F)cc(-c3ccccc3)nc12` [SR1-293229] the “loss of neurites induced by PFFs exposure” value (shortened to “loss of neurites induced”) [9] was “prevent loss of neurites”, the EC50 ([4]; read-out: NAD EC50) was 6.8 nM and the EC50 (Cells exposed to TPrP [10]) was 2 nM. For the same compound, the “Activation of NAMPT” value (NAMPT) was “not”, the EC50 (Cells exposed to TPrP [1]) was 1.5 nM and the PARP-1 inhibition (PARP-1) was “absence of PARP-1 inhibition”. The EC50 ([6]; read-out: Viability EC50) was 1.9 nM.
In the case of `COc1ccc(-c2cc(=O)c3c(OC)c(OC)c(OC)c(OC)c3o2)cc1OC` [SR-01000712262, 2-(3,4-dimethoxyphenyl)-5,6,7,8-tetramethoxy-4H-chromen-4-one], the “loss of neurites induced” value [9] is reported as “prevent loss of neurites”, the EC50 ([4]; read-out: NAD EC50) is reported as 664 nM and the “Activation of NAMPT” value (NAMPT) is reported as “not”. The PARP-1 inhibition (PARP-1) was “absence of PARP-1 inhibition” and the EC50 ([6]; read-out: Viability EC50) was 580 nM.
For `Clc1ccc(Nc2nnc(Cc3ccncc3)c3ccccc23)cc1` [Vatalanib, reference compound], the “loss of neurites induced” value [9] is given as “prevent loss of neurites”, the oral bioavailability [11] is given as “high” and the EC50 ([4]; read-out: EC50 (NAD assay)) is given as 195 nM. The EC50 ([4]; read-out: NAD EC50) was 195 nM, the EC50 (Cells exposed to TPrP [1]) was 45 nM and the EC50 [6, 13] was 39.9 nM. The EC50 ([6]; read-out: Viability EC50) was 40 nM.
With `CCOC(=O)c1ncn2c1CN(C)C(=O)c1cc(F)ccc1-2` [flumazenil] the “protection against TPrP toxicity” value [12] was “neither rescued TPrP-induced toxicity; also recorded: absence of protection”.
For NAD, the “neuritic breakdown and neuronal vacuolation induced by TPrP” value [5] was “suppressed”.

— patent US12590094B2, “Compounds for the treatment of neurodegenerative and metabolic disorders” (UNIVERSITY OF FLORIDA RESEARCH FOUNDATION, INCORPORATED, priority 2019, dated 2026)
